Legend:
diabetic CD-1 mice = experiment: FA modulators (fenofibrate, etomoxir, C75, simvastatin) in diabetic CD-1 mice; type: in vivo, mouse; settings: for CPT1a level / FAO, as measured by [14CO2] release / β-catenin level / fibrogenic phenotype / level of fibrosis / level of GR protein in CD31 positive cells: diabetic CD-1 mice; for fibrogenic phenotype / level of fibrosis / level of GR protein in CD31 positive cells: treated for 4 weeks; for fibronectin mRNA level / αSMA mRNA level: diabetic kidneys, CD-1 mice
Description: FIG. 33A-33F show endothelial GR is essential for the action of anti-dyslipidemic drugs in the diabetic kidney disease. (FIG. 33A) Masson trichrome (MTS) and Sirius red staining in kidneys of control, diabetic, fenofibrate-, etomoxir-, C75- and simvastatin-treated diabetic mice. Representative images (original magnification 300×) are shown. Relative area of fibrosis (%) and relative collagen deposition (%) were measured using the ImageJ program. n=6 biologically independent mice/group combined from two experiments were analyzed. Scale bar 50 μm. (FIG. 33B) Co-immunolabeling of GR/CD31 was analyzed by fluorescence microscopy. FITC-labeled GR, rhodamine-labeled CD31 and DAPI were used. Representative images are shown; original magnification 300×. Scale bar 50 μm. n=6 biologically independent mice/group combined from two experiments were analyzed. (FIG. 33C) PCR gene analiof fibronectin and α-SMA in the kidneys. 18S was used as an internal control. n=6 biologically independent mice/group. (FIG. 33D) Blood glucose measurements in control, diabetic, fenofibrate-, etomoxir-, C75- and simvastatin-treated diabetic mice. n=6 biologically independent mice/group. (FIG. 33E) Radiolabeled [^14C]palmitate oxidation and [^14CO2]release were measured. CPM of each sample was counted. Endothelial cells isolated from six biologically independent mice were evaluated. Three independent experiments were analyzed. Data are mean±SEM (FIG. 33F) Immunohistochemical analysis of CPT1a and β-catenin was analyzed in the kidneys of control, diabetic, fenofibrate-, C75-, etomoxir- and simvastatin-treated diabetic mice. n=6 biologically independent mice/group. Representative images are shown; original magnification 400×. Scale bar 50 μm. Data are mean SEM. In all panels, one-way Anova with Tukey multiple comparison post hoc test was used to calculate statistical significance. Significance—*p<0.05, **p<0.01, ***p<0.001. Con: control, DM: diabetic, feno: fenofibrate.
A single IP dose of 200 mg/kg STZ was used to induce diabetes in CD-1 mice.
In one experiment, male mice were randomized to one of 4 groups sixteen weeks after induction of diabetes: (i) untreated, (ii) fenofibrate (100 mg/kg), (iii) simvastatin (40 mg/kg), or (iv) Wnt inhibitor (LGK974; 5 mg/kg). In each case, mice were treated for 4 weeks and compared to untreated diabetic CD-1 mice. In another experiment, male diabetic CD-1 mice were randomized into one of 3 groups: (i) untreated (vehicle), (ii) etomoxir (20 mg/kg) or (iii) C75 (15 mg/kg); in each case mice were treated (IP) three times/week for a total 4 weeks.
Morphological Evaluation. A point-counting method was utilized to evaluate the relative area of the mesangial matrix. The inventors analyzed PAS-stained glomeruli from each mouse using a digital microscope screen grid containing 540 (27×20) points. Masson's trichrome-stained images were evaluated by ImageJ software, and the fibrotic areas were estimated.
Sirius red staining. Deparaffinized sections were incubated with picrosirius red solution for 1 hour at room temperature. The slides were washed twice with acetic acid solution for 30 seconds per wash. The slides were then dehydrated in absolute alcohol three times, cleared in xylene, and mounted with a synthetic resin. Sirius red staining was analyzed using ImageJ software, and fibrotic areas were quantified.
Immunohistochemistry. Paraffin-embedded kidney sections (5 μm thick) were deparaffinized and rehydrated (2 min in xylene, four times; 1 min in 100% ethanol, twice; 1 min in 95% ethanol; 45 s in 70% ethanol; and 1 min in distilled water), and the antigen was retrieved in a 10 mM citrate buffer pH 6 at 98° C. for 60 min. To block the endogenous peroxidase, all sections were incubated in 0.3% hydrogen peroxide for 10 min. The immunohistochemistry was performed using a Vectastain ABC Kit (Vector Laboratories, Burlingame, CA). Mouse anti-β-catenin antibody (1:100) and CPT1a (Abnova; H00001374-DO1P; 1:100) antibodies were used. […]

[1] = test system: control littermates and GR^ECKO mice; experiment: Etomoxir and C75 in non-diabetic and diabetic control littermates and GR^ECKO mice; type: in vivo, mouse; settings: for level of renal fibrosis: nondiabetic control and GR^ECKO mice
Description: FIGS. 6A-6E show metabolic reprogramming by loss of endothelial GR loss worsens diabetic kidney disease. (FIG. 6A) Radiolabeled ^14C-palmitate uptake analysis in isolated endothelial cells from kidneys of nondiabetic and diabetic control, GR^ECKO Apoe^−/− and DKO mice. CPM of each sample were counted. Data were normalized to μg protein. Fold activity is presented. Endothelial cells isolated and cultured from six biologically independent mice/group were performed in triplicate and analyzed for ^14C-palmitate uptake analysis. Data are mean±SEM. (FIG. 6B) Radiolabeled [^14C]palmitate oxidation and [^14CO2]release were measured in isolated endothelial cells from kidneys of nondiabetic and diabetic control, GR^ECKO Apoe^−/− and DKO mice. CPM of each sample was counted. Data were normalized to μg protein. Fold activity is presented. Endothelial cells isolated and cultured from six biologically independent mice/group were performed in triplicate and analyzed for ^14C-palmitate uptake analysis. Data are mean±SEM. (FIG. 6C) Body weight, blood glucose, and kidney weight/body weight were measured at the end of these experiments. N=6 biologically independent mice from two experiments. Ex vivo radiolabeled [^14C]palmitate oxidation and [^14CO2]release were measured in kidneys. CPM of each sample was counted. Isolated endothelial cells from five biologically independent mice/group were analyzed in triplicate. Data are mean±SEM. (FIG. 6D) Masson trichrome, Sirius red and PAS staining were analyzed in the kidneys of control, etomoxir- and C75-treated diabetic mice. Representative images are shown; original magnification 300×. Relative area of fibrosis (%) and relative collagen deposition (%) were measured using the ImageJ program. N=8 biologically independent mice per/group from three independent experiments were analyzed. Scale bar 50 μm. Data are mean±SEM. (FIG. 6E) Immunohistochemical analysis of CPT1a and β-catenin. Representative images are shown; original magnification 300×. Scale bar 50 μm. N=6 biologically independent mice per group from three independent experiments. For all panels one-way ANOVA with Tukey post-test was used for analysis of statistical significance. Significance—*p<0.05, **p<0.01, ***p<0.001.
Body weight, blood glucose, and kidney/body weight ratio and fatty acid oxidation as represented by [^14CO2]release are shown. [^14C]palmitate was used as substrate and CPM counts were normalized by protein. n=6 biologically independent mice/group. Data are mean±SEM. One-way Anova with Tukey multiple comparison post hoc test was used to calculate statistical significance. Significance—*p<0.05.
Masson trichrome staining (upper panel) and Sirius red (lower panels) in etomoxir- and C75-treated non-diabetic control and GR^ECKO mice. Etomoxir (20 mg/kg) and C75 (15 mg/kg) were dosed (IP) three times per week for 3 weeks in GR^ECKO and control littermates. Representative images are shown; original magnification 400×. Area of fibrosis (%) and relative collage deposition (%) in n=6 biologically independent mice/group were combined from two independent experiments. Scale bar 50 μm. Data are mean±SEM. One-way Anova with Tukey multiple comparison post hoc test was used to calculate statistical significance. Significance-**p<0.01.
Animal Experimentation. All experiments were performed according to a protocol approved by the Institutional Animal Care and Use Committee at the Yale University School of Medicine and were in accordance with the National Institute of Health (NIH) Guidelines for the Care of Laboratory Animals Mice were housed at an ambient temperature of 68-79° F. with a humidity that ranged between 30%-70%. They were exposed to 12-h light-dark cycles Mice lacking the endothelial glucocorticoid receptor (GR) (known as GR^ECKO) and those lacking this receptor on the Apoe null background (DKO) were generated as previously described^25; these mice were on the C57BL/6 background. […]

[2] = kidney ECs from diabetic GR^ECKO mice
[3] = kidney ECs, non-diabetic control littermates
[4] = kidneys of diabetic GR^ECKO mice
[5] = kidneys of diabetic control mice

SMILES | CPT1a level (diabetic CD-1 mice) | FAO, as measured by [14CO2] release (diabetic CD-1 mice) | β-catenin level (diabetic CD-1 mice) | fibrogenic phenotype / level of fibrosis (diabetic CD-1 mice) | level of GR protein in CD31 positive cells (diabetic CD-1 mice) | fibronectin mRNA level (diabetic CD-1 mice) | αSMA mRNA level (diabetic CD-1 mice) | expression of CPT1a (immunohistochemical analysis, FIG. 6E) ([1]; diabetic GR^ECKO mice) | expression of β-catenin (immunohistochemical analysis, FIG. 6E) ([1]; diabetic GR^ECKO mice) | expression of CPT1a (immunohistochemical analysis, FIG. 6E) ([1]; diabetic control mice) | expression of β-catenin (immunohistochemical analysis, FIG. 6E) ([1]; diabetic control mice) | FAO [1, 2] | FAO [1, 3] | CPT1a level [1, 4] | level of β-catenin [1, 4] | renal fibrogenic phenotype [1, 4] | CPT1a level [1, 5] | level of β-catenin [1, 5] | renal fibrogenic phenotype [1, 5] | level of renal fibrosis [1]
C=C1C(=O)OC(CCCCCCCC)C1C(=O)O (stereo not shown) [C75] | increased the expression of CPT1a | increased the level of FAO | suppressed the level of β-catenin | ameliorated the fibrogenic phenotype | restored | downregulated | downregulated | A similar pattern was observed | A similar pattern was observed | substantially reverse | substantially reverse | unable to rescue | restored FAO | also observed in the GR^ECKO mice, though to a lesser extent | also observed in the GR^ECKO mice, though to a lesser extent | also observed in the GR^ECKO mice, though to a lesser extent | restored CPT1a | completely diminished the level of β-catenin | clearly abolished the renal fibrogenic phenotype | mitigated
CCOC(=O)[C@@]1(CCCCCCOc2ccc(Cl)cc2)CO1 [etomoxir] | significant suppression | significant suppression | induced the expression of β-catenin | exacerbated the fibrosis | suppressed it | upregulated | upregulated | A similar pattern was observed | A similar pattern was observed | decreased expression of CPT1a | increasing expression of β-catenin | significant suppression of FAO | significant suppression of FAO | suppressed the CPT1a level | increased the expression level of β-catenin | accelerated the renal fibrogenic phenotype | suppressed the CPT1a level | increased the expression level of β-catenin | accelerated the renal fibrogenic phenotype | slightly increased the level of renal fibrosis
